# Results reported in patent publication US20230339878A1, “SLC26A3 INHIBITORS AND USE THEREOF” (THE REGENTS OF THE UNIVERSITY OF CALIFORNIA, priority 2018, published 2023).
# “Also recorded” adds a separate entry of the source.
# What was measured:
# (human) SLC26A3 = target: T1, (human) SLC26A3 (Homo sapiens, UniProt P40879); assay: SLC26A3-mediated Cl-/I- exchange in HEK cells expressing SLC26A3 and YFP; format: cell-based
# T1 construct: host or cells: HEK293 cells transduced with lentivirus, then transfected with YFP
# T1 sequence (P40879 1-764): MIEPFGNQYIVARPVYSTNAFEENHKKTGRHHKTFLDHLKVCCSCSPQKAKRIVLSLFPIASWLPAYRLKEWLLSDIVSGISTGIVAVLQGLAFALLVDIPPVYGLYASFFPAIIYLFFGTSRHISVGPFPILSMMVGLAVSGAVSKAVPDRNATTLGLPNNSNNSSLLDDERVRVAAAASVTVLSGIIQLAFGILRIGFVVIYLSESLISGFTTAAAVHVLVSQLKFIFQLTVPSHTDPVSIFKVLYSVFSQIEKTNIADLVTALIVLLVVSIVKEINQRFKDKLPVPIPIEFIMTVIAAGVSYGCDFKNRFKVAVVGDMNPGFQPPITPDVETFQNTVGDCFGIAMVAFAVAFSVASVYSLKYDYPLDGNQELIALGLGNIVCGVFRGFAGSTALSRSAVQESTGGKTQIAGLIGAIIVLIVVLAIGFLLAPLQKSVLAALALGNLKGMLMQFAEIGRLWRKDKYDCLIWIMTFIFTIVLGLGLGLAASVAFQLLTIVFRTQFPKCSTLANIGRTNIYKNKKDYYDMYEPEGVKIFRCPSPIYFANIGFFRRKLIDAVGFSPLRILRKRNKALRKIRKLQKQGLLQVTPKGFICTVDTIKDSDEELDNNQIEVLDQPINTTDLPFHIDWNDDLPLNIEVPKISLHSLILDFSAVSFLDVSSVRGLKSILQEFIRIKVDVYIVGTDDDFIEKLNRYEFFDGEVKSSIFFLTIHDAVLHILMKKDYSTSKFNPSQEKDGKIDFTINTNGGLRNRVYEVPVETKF
# Procedure: Inhibition of (human) SLC26A3 by Compound A1 was also tested, using a HEK cell model expressing SLC26A3 and YFP.
# To generate a cell line enriched for expression of SLC26A3, HEK293 cells were transduced with lentiviral particles generated with the pLVX-IRES-mCherry-SLC26A3 transfer vector and then transfected to express YFP.
# HEK293 cells transfected with pIRES-YFP-slc26a9 were plated in 96-well black-walled, clear-bottom tissue culture plates (Corning Life Sciences, Tewksbury, MA) after coating with FNC Coating Mix (AthenaES, Baltimore, MD). […] Assays of slc26a9-mediated anion exchange were done by initially recording YFP fluorescence prior to addition of 100 µL of NaI-substituted PBS to test wells, with the initial rate of Cl^-/I^- exchange deduced from fluorescence intensity by single exponential regression. […] To assay SLC26A3 function, HEK293 cells transduced with lentiviral particles generated from the pLVX-IRES-mCherry-SLC26A3 transfer vector were transfected to express YFP for Cl^-/I^- exchange assays as described above; red fluorescence images were acquired to confirm SLC26A3 expression in cells. […]
# PAT-1 (slc26a6) = target: T2, PAT-1 (slc26a6) (Mus musculus, UniProt Q8CIW6); assay: Selectivity: slc26a6 Cl-/I- exchange in HEK cells; format: cell-based, murine; conditions: 10 µM
# T2 construct: full-length slc26a6 was subcloned into pLVX-YFP-T2A-Puro as an EcoRI to XbaI fragment; host or cells: HEK293 cells infected with lentivirus, puromycin selected
# T2 sequence (Q8CIW6 1-758): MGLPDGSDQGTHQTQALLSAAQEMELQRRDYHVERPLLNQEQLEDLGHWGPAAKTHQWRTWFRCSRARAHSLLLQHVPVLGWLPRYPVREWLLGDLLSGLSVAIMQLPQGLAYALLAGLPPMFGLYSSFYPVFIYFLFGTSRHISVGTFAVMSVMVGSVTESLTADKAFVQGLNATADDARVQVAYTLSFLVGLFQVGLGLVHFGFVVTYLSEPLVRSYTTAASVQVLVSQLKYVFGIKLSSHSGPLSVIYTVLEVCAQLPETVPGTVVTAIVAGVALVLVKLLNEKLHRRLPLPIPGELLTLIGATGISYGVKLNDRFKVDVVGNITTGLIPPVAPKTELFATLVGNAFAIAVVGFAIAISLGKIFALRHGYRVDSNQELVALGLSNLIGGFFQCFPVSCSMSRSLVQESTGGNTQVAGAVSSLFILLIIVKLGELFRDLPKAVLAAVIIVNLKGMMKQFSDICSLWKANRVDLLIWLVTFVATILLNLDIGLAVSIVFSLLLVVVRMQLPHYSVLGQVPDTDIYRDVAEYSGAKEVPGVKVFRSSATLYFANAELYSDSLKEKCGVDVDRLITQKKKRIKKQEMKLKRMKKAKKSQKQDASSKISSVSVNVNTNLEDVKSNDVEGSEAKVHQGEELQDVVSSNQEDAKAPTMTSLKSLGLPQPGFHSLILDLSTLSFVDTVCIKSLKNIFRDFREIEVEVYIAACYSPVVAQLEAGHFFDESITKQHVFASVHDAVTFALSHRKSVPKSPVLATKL
structure (smiles),measurement,setting,value
Cc1c(CC(=O)O)c(=O)oc2c(C)c(OCc3cccc(Br)c3)ccc12 [Compound A1],IC50,(human) SLC26A3; HEK cells,~250 nM
same,extent of inhibition of SLC26A3-mediated Cl-/I- exchange,(human) SLC26A3; higher concentrations,complete inhibition
same,effect on Cl-/I- exchange activity of PAT-1 (slc26a6),PAT-1 (slc26a6),did not alter; also recorded: did not inhibit; also recorded: differences not significant
